Holding throughout (format): functional
In experiment [1] the test system is Enterococcus faecalis. Description: Antibacterial activity against Enterococcus faecalis OG1RF after 72 hrs by broth microdilution method.
In experiment [2] the test system is Pseudomonas aeruginosa. As to the kind of experiment: Antibacterial activity against Pseudomonas aeruginosa PAO1 WT after 72 hrs by broth microdilution method. To be noted: PAO1, 72 h. (Dilution methods test growth across graded concentrations, often in twofold steps.)
Experiment [3] relates to Staphylococcus aureus. Description: Antibacterial activity against Staphylococcus aureus SH1000 after 72 hrs by broth microdilution method. To be noted: SH1000, 72 h.
The subject of experiment [4] is Escherichia coli. Description: Antibacterial activity against Escherichia coli MC4100 after 72 hrs by broth microdilution method. Conditions: MC4100, 72 h.

As a reminder, the MIC is the lowest concentration that inhibits growth of the organism. Lower therefore signals a more susceptible organism.

For the molecule `CCCCCCCC[n+]1cccc(-c2ccc[n+](CCCCCCCC)c2)c1`, the MIC in experiment [1] was 125 µM; in experiment [2], above 500 µM; in experiment [3] it was 32 µM; in experiment [4], 250 µM.
Regarding `CCCCCCCCCCCC[n+]1cccc(-c2ccc[n+](C)c2)c1`, the MIC in experiment [1] worked out at 125 µM; in experiment [2], 250 µM; in experiment [3], 125 µM; in experiment [4] it was 125 µM.
With `CCCCCCCCCCCCCC[n+]1ccc(-c2ccc[n+](CCCCCCCCCCCCCC)c2)cc1`, the MIC in experiment [1] is 1 µM; in experiment [2], 16 µM; in experiment [3], 2 µM; in experiment [4] it was 2 µM.
As to `CCCCCCCCCCCCCC[n+]1cccc(-c2ccc[n+](CCCCCCCCCCCC)c2)c1`, the MIC in experiment [1] stood at 1 µM; in experiment [2], 8 µM; in experiment [3] it was 2 µM; in experiment [4], 2 µM.
Turning to `CCCCCCCCCC[n+]1cccc(-c2ccc[n+](CCCCCCCCCC)c2)c1`, the MIC in experiment [1] was 2 µM; in experiment [2], 8 µM; in experiment [3] it was 2 µM; in experiment [4], 2 µM.
With `CCCCCCCCCCCC[n+]1cccc(-c2ccc[n+](CCCCCCCCCC)c2)c1`, the MIC was determined as 2 µM in experiment [1], 4 µM in experiment [2], 2 µM in experiment [3] and 2 µM in experiment [4].
As to `CCCCCCCC[n+]1ccc(-c2ccc[n+](CCCCCCCC)c2)cc1`, the MIC in experiment [1] is 125 µM; in experiment [2], above 500 µM; in experiment [3], 125 µM; in experiment [4], 125 µM.
`CCCCCCCCCCCCCCCC[n+]1cccc(-c2ccc[n+](CCCCCCCCCCCCCCCC)c2)c1`: the MIC in experiment [1] is 1 µM; in experiment [2] it was 16 µM; in experiment [3] it was 2 µM; in experiment [4], 8 µM.
Taken in the same sequence, the figures for `CCCCCCCCCCC[n+]1ccc(-c2ccc[n+](CCCCCCCCCCC)c2)cc1` were 0.5 µM, 1 µM, 0.5 µM and 0.5 µM.
On to `CCCCCCCCCCCC[n+]1cccc(-c2cccnc2)c1`, for which the MIC in experiment [1] worked out at 63 µM; in experiment [2], 250 µM; in experiment [3], 8 µM; in experiment [4], 63 µM.
For `CCCCCCCCCCCCCC[n+]1cccc(-c2ccc[n+](CCCCCCCCCCCCCC)c2)c1`, the minimum inhibitory concentration (MIC) in experiment [1] came out at 2 µM; in experiment [2] it was 16 µM; in experiment [3] it was 2 µM; in experiment [4], 4 µM.
For the molecule `CCCCCCCCCCC[n+]1cccc(-c2ccc[n+](CCCCCCCCCCC)c2)c1`, the MIC in experiment [1] came out at 1 µM; in experiment [2] it was 2 µM; in experiment [3] it was 0.5 µM; in experiment [4] it was 1 µM.
For `CCCCCCCCCCCCCCCC[n+]1ccc(-c2ccc[n+](CCCCCCCCCCCCCCCC)c2)cc1`, the MIC in experiment [1] stood at 4 µM; in experiment [2] it was 63 µM; in experiment [3], 2 µM; in experiment [4], 16 µM.
Taken in the same sequence, the figures for `CCCCCCCCCCCC[n+]1cccc(-c2ccc[n+](Cc3ccccc3)c2)c1` were 63 µM, 250 µM, 8 µM and 32 µM.
Taken in the same sequence, the figures for `CCCCCCCCCCCC[n+]1cccc(-c2ccc[n+](CCCCCCCCCCCC)c2)c1` were 1 µM, 2 µM, 1 µM and 1 µM.
As to `CCCCCCCCCCCC[n+]1ccc(-c2ccc[n+](CCCCCCCCCCCC)c2)cc1`, the MIC in experiment [1] was 1 µM; in experiment [2], 2 µM; in experiment [3] it was 1 µM; in experiment [4], 0.5 µM.
Regarding `CCCCCCCCCCCC[N+](C)(C)Cc1ccccc1` [BENZODODECINIUM CHLORIDE], the MIC came out at 8 µM in experiment [1], 63 µM in experiment [2], 8 µM in experiment [3] and 32 µM in experiment [4].
Take `CCCCCCCCCC[n+]1ccc(-c2ccc[n+](CCCCCCCCCC)c2)cc1`: the MIC came out at 2 µM in experiment [1], 16 µM in experiment [2], 2 µM in experiment [3] and 2 µM in experiment [4].

(Values after ChEMBL document CHEMBL3351864, “Beyond paraquats: dialkyl 3,3'- and 3,4'-bipyridinium amphiphiles as antibacterial agents” (2014).)
